Reference: ChEMBL document CHEMBL1140044, “Structure-activity relationship study on anti-HIV 6-desfluoroquinolones” (J Med Chem, 2008)
≈ marks a conversion by molar mass, not a printed value.

What was measured:
[1] = tested on: Human immunodeficiency virus 1; assay: Antiviral activity against HIV1 3B in MT4 cells assessed as inhibition of virus-induced cytopathogenicity by MTT assay; format: functional, organism-based; conditions: Human immunodeficiency virus 1, 3B
[2] = Selectivity index, ratio of CC50 for human MT4 cells to EC50 for HIV2 ROD; format: toxicity, cell-based; conditions: read-out: Ratio CC50/EC50
[3] = tested on: Human immunodeficiency virus 2; assay: Antiviral activity against HIV2 ROD in MT4 cells assessed as inhibition of virus-induced cytopathogenicity by MTT assay; format: functional, organism-based; conditions: Human immunodeficiency virus 2, ROD
[4] = Cytotoxicity against mock-infected human MT4 cells after 5 days by MTT assay; format: cell-based
[5] = Selectivity index, ratio of CC50 for human MT4 cells to EC50 for HIV1 3B; format: toxicity, cell-based; conditions: read-out: Ratio CC50/EC50
[6] = Cytotoxicity against mock-infected human CEM cells by Coulter counter; format: cell-based; conditions: mock-infected CEM (CCRF-CEM) cells
[7] = Selectivity index, ratio of CC50 for human CEM cells to EC50 for HIV1 3B; format: toxicity, cell-based, CCRF-CEM; conditions: read-out: Ratio CC50/EC50
[8] = tested on: Human immunodeficiency virus 1; assay: Antiviral activity against HIV1 3B in PBMC assessed as inhibition of p24 production after 7 days by ELISA; format: functional, organism-based; conditions: Human immunodeficiency virus 1, 3B, 168 h
[9] = Selectivity index, ratio of CC50 for human CEM cells to EC50 for HIV2 ROD; format: toxicity, cell-based, CCRF-CEM; conditions: read-out: Ratio CC50/EC50
[10] = Selectivity index, ratio of CC50 for human PBMC cells to EC50 for HIV1 3B; format: toxicity, cell-based; conditions: read-out: Ratio CC50/EC50
[11] = tested on: Human immunodeficiency virus 2; assay: Antiviral activity against HIV2 ROD in CEM cells assessed as inhibition of virus-induced syncytium formation after 4 days by microscopy; format: functional, organism-based; conditions: Human immunodeficiency virus 2, ROD, CCRF-CEM, 96 h
[12] = tested on: Human immunodeficiency virus 1; assay: Antiviral activity against HIV1 3B in CEM cells assessed as inhibition of virus-induced syncytium formation after 4 days by microscopy; format: functional, organism-based; conditions: Human immunodeficiency virus 1, 3B, CCRF-CEM, 96 h
[13] = Cytotoxicity against mock-infected human PBMC cells by trypan blue exclusion assay; format: cell-based

Cc1cccc(Sc2cc3c(cc2N)c(=O)c(C(=O)O)cn3C)c1
EC50 [1]: > 2 µg/mL | selectivity ratio [2]: < 1 | EC50 [3]: > 2 µg/mL | CC50 at 120 h [4]: > 2 µg/mL | selectivity ratio [5]: < 1

Cn1ccc(=O)c2cc(N)c(N3CCN(c4nc5ccccc5o4)CC3)cc21
EC50 [1]: > 72.1 µg/mL | selectivity ratio [2]: < 1 | EC50 [3]: > 72.1 µg/mL | CC50 at 120 h [4]: 72.1 µg/mL (≈ 192 µM) | selectivity ratio [5]: < 1

CO/N=C(\C)c1cn(C)c2cc(N3CCN(c4ccccn4)CC3)c(N)cc2c1=O
EC50 [1]: > 92.6 µg/mL | selectivity ratio [2]: < 1 | EC50 [3]: > 92.6 µg/mL | CC50 at 120 h [4]: 92.7 µg/mL (≈ 228 µM) | selectivity ratio [5]: < 1

Nc1cc2c(=O)c(C(=O)O)c[nH]c2cc1N1CCN(c2nc3ccccc3o2)CC1
CC50 [6]: 3.17 µg/mL (≈ 7.82 µM) | selectivity ratio [7]: 11 | EC50 [8]: 0.16 µg/mL (≈ 0.395 µM) | EC50 [1]: 0.23 µg/mL (≈ 0.567 µM) | selectivity ratio [9]: 14 | selectivity ratio [2]: 7 | selectivity ratio [10]: 7 | EC50 [11]: 0.23 µg/mL (≈ 0.567 µM) | EC50 [3]: 0.28 µg/mL (≈ 0.691 µM) | CC50 at 120 h [4]: 1.95 µg/mL (≈ 4.81 µM) | EC50 [12]: 0.3 µg/mL (≈ 0.74 µM) | selectivity ratio [5]: 11 | CC50 [13]: 1.12 µg/mL (≈ 2.76 µM)

C/C(=N\O)c1cn(C)c2cc(N3CCN(c4ccccn4)CC3)c(N)cc2c1=O
EC50 [1]: > 125 µg/mL | EC50 [3]: > 125 µg/mL | CC50 at 120 h [4]: > 125 µg/mL

Nc1cc2c(=O)c(C(=O)O)c[nH]c2cc1N1CCN(c2ccccn2)CC1
CC50 [6]: 4.75 µg/mL (≈ 13 µM) | selectivity ratio [7]: 93 | EC50 [8]: 0.094 µg/mL (≈ 0.257 µM) | EC50 [1]: 0.45 µg/mL (≈ 1.23 µM) | selectivity ratio [9]: 53 | selectivity ratio [2]: 14 | selectivity ratio [10]: 13 | EC50 [11]: 0.09 µg/mL (≈ 0.246 µM) | EC50 [3]: 0.16 µg/mL (≈ 0.438 µM) | CC50 at 120 h [4]: 2.16 µg/mL (≈ 5.91 µM) | EC50 [12]: 0.051 µg/mL (≈ 0.14 µM) | selectivity ratio [5]: 5 | CC50 [13]: 1.28 µg/mL (≈ 3.5 µM)

Cn1cc(C(N)=O)c(=O)c2cc(N)c(N3CCN(c4ccccn4)CC3)cc21
EC50 [1]: > 125 µg/mL | EC50 [3]: > 125 µg/mL | CC50 at 120 h [4]: > 125 µg/mL

Cn1cc(C(=O)O)c(=O)c2cc(N)c(N3CCN(c4ccc5ccccc5n4)CC3)cc21
CC50 [6]: 4.15 µg/mL (≈ 9.66 µM) | selectivity ratio [7]: 115 | EC50 [1]: 0.035 µg/mL (≈ 0.0815 µM) | selectivity ratio [9]: 55 | selectivity ratio [2]: 10 | EC50 [11]: 0.075 µg/mL (≈ 0.175 µM) | EC50 [3]: 0.022 µg/mL (≈ 0.0512 µM) | CC50 at 120 h [4]: 0.21 µg/mL (≈ 0.489 µM) | EC50 [12]: 0.036 µg/mL (≈ 0.0838 µM) | selectivity ratio [5]: 6

Cn1cc(C(=O)O)c(=O)c2cc(N)c(N3CCC(c4ccccn4)CC3)cc21
EC50 [1]: > 125 µg/mL | EC50 [3]: > 125 µg/mL | CC50 at 120 h [4]: > 125 µg/mL

Cn1cc(C(=O)O)c(=O)c2ccc(N3CCN(c4ccccn4)CC3)cc21
CC50 [6]: > 100 µg/mL | selectivity ratio [7]: > 83 | EC50 [8]: 1.35 µg/mL (≈ 3.7 µM) | EC50 [1]: 19.2 µg/mL (≈ 52.7 µM) | selectivity ratio [9]: > 56 | selectivity ratio [2]: < 1 | selectivity ratio [10]: > 74 | EC50 [11]: 1.8 µg/mL (≈ 4.94 µM) | EC50 [3]: > 65.5 µg/mL | CC50 at 120 h [4]: 65.5 µg/mL (≈ 180 µM) | EC50 [12]: 1.2 µg/mL (≈ 3.29 µM) | selectivity ratio [5]: 3.4 | CC50 [13]: > 100 µg/mL

Cn1ccc(=O)c2cc(N)c(N3CCN(c4ccccn4)CC3)cc21
EC50 [1]: > 105 µg/mL | selectivity ratio [2]: < 1 | EC50 [3]: > 104 µg/mL | CC50 at 120 h [4]: 105 µg/mL (≈ 313 µM) | selectivity ratio [5]: < 1

Cn1cc(C(=O)O)c(=O)c2cc(N)c(N3CCC(c4ccccn4)C3)cc21 (stereo not given)
EC50 [1]: > 90.8 µg/mL | selectivity ratio [2]: < 1 | EC50 [3]: > 90.8 µg/mL | CC50 at 120 h [4]: > 90.8 µg/mL | selectivity ratio [5]: < 1

Cn1cc(C(=O)NCc2ccc(F)cc2F)c(=O)c2cc(N)c(N3CCN(c4ccccn4)CC3)cc21
EC50 [1]: > 32.2 µg/mL | selectivity ratio [2]: < 1 | EC50 [3]: > 32.2 µg/mL | CC50 at 120 h [4]: 32.2 µg/mL (≈ 63.9 µM) | selectivity ratio [5]: < 1

Cn1cc(C(=O)O)c(=O)c2cc(N)c(N3CCN(c4ccccn4)CC3)cc21
CC50 [6]: > 100 µg/mL | selectivity ratio [7]: > 3330 | EC50 [8]: 0.051 µg/mL (≈ 0.134 µM) | EC50 [1]: 0.058 µg/mL (≈ 0.153 µM) | selectivity ratio [9]: > 1670 | selectivity ratio [2]: 10 | selectivity ratio [10]: 29 | EC50 [11]: 0.06 µg/mL (≈ 0.158 µM) | EC50 [3]: 0.097 µg/mL (≈ 0.256 µM) | CC50 at 120 h [4]: 0.84 µg/mL (≈ 2.21 µM) | EC50 [12]: 0.03 µg/mL (≈ 0.0791 µM) | selectivity ratio [5]: 15 | CC50 [13]: 1.45 µg/mL (≈ 3.82 µM)

Cn1cc(C(=O)O)c(=O)c2ccc(N3CCN(c4cnccn4)CC3)cc21
CC50 [6]: > 100 µg/mL | selectivity ratio [7]: > 3 | EC50 [1]: 58.2 µg/mL (≈ 159 µM) | selectivity ratio [9]: > 2 | selectivity ratio [2]: 8 | EC50 [11]: 47.5 µg/mL (≈ 130 µM) | EC50 [3]: 16.4 µg/mL (≈ 44.7 µM) | CC50 at 120 h [4]: > 125 µg/mL | EC50 [12]: 35 µg/mL (≈ 95.8 µM) | selectivity ratio [5]: > 2

Cn1ccc(=O)c2cc(N)c(N3CCN(c4nccs4)CC3)cc21
EC50 [1]: > 89.5 µg/mL | selectivity ratio [2]: < 1 | EC50 [3]: > 89.5 µg/mL | CC50 at 120 h [4]: 89.5 µg/mL (≈ 262 µM) | selectivity ratio [5]: < 1

Cn1cc(C(=O)O)c(=O)c2cc(N)c(N3CCN(c4cnc5ccccc5n4)CC3)cc21
CC50 [6]: > 4 µg/mL | selectivity ratio [7]: > 80 | EC50 [1]: 0.18 µg/mL (≈ 0.418 µM) | selectivity ratio [9]: > 14 | selectivity ratio [2]: 17 | EC50 [11]: 0.28 µg/mL (≈ 0.65 µM) | EC50 [3]: 0.19 µg/mL (≈ 0.441 µM) | CC50 at 120 h [4]: 3.2 µg/mL (≈ 7.43 µM) | EC50 [12]: 0.05 µg/mL (≈ 0.116 µM) | selectivity ratio [5]: 18

Cn1cc(C(=O)NCc2ccc(Cl)cc2)c(=O)c2cc(N)c(N3CCN(c4ccccn4)CC3)cc21
EC50 [1]: > 125 µg/mL | selectivity ratio [2]: 1 | EC50 [3]: > 125 µg/mL | CC50 at 120 h [4]: > 125 µg/mL

CC(=O)c1cn(C)c2cc(N3CCN(c4ccccn4)CC3)c(N)cc2c1=O
EC50 [1]: > 125 µg/mL | EC50 [3]: > 125 µg/mL | CC50 at 120 h [4]: > 125 µg/mL

Cn1cc(C(=O)O)c(=O)c2cc(N)c(N3CCN(Cc4ccccn4)CC3)cc21
EC50 [1]: > 125 µg/mL | EC50 [3]: > 125 µg/mL | CC50 at 120 h [4]: > 125 µg/mL

Cn1cc(C(=O)O)c(=O)c2cc(N)c(N3CCNCC3)cc21
EC50 [1]: > 94 µg/mL | EC50 [3]: > 94 µg/mL | CC50 at 120 h [4]: ≥ 94 µg/mL

Nc1cc2c(=O)c(C(=O)O)c[nH]c2cc1N1CCN(c2nccs2)CC1
CC50 [6]: 15.8 µg/mL (≈ 42.5 µM) | selectivity ratio [7]: 23 | EC50 [8]: 0.21 µg/mL (≈ 0.565 µM) | EC50 [1]: 1.21 µg/mL (≈ 3.26 µM) | selectivity ratio [9]: 26 | selectivity ratio [2]: 5 | selectivity ratio [10]: 10 | EC50 [11]: 0.6 µg/mL (≈ 1.62 µM) | EC50 [3]: 1.92 µg/mL (≈ 5.17 µM) | CC50 at 120 h [4]: 7.61 µg/mL (≈ 20.5 µM) | EC50 [12]: 0.7 µg/mL (≈ 1.88 µM) | selectivity ratio [5]: 7 | CC50 [13]: 2.02 µg/mL (≈ 5.44 µM)

CCN(CCNc1cc2c(cc1N)c(=O)c(C(=O)O)cn2C)c1ccccn1
EC50 [1]: > 16.9 µg/mL | EC50 [3]: > 16.9 µg/mL | CC50 at 120 h [4]: 16.9 µg/mL (≈ 44.2 µM)

Cn1cc(C(=O)O)c(=O)c2ccc(N3CCN(c4nccs4)CC3)cc21
CC50 [6]: ≥ 100 µg/mL | selectivity ratio [7]: ≥ 38 | EC50 [1]: 10 µg/mL (≈ 27.1 µM) | selectivity ratio [9]: ≥ 12 | selectivity ratio [2]: > 10 | EC50 [11]: 8 µg/mL (≈ 21.6 µM) | EC50 [3]: 12.7 µg/mL (≈ 34.3 µM) | CC50 at 120 h [4]: > 125 µg/mL | EC50 [12]: 2.6 µg/mL (≈ 7.02 µM) | selectivity ratio [5]: > 12

Nc1cc2c(=O)c(C(=O)O)c[nH]c2cc1N1CCN(c2cccc(C(F)(F)F)c2)CC1
EC50 [1]: 0.38 µg/mL (≈ 0.879 µM) | selectivity ratio [2]: 4 | EC50 [3]: 0.46 µg/mL (≈ 1.06 µM) | CC50 at 120 h [4]: 1.64 µg/mL (≈ 3.79 µM) | selectivity ratio [5]: 4
